Measurements from patent US9345703B2, “Kappa opioid receptor effectors and uses thereof” (University of Kansas, priority 2011, dated 2016).
Marks after values point to notes of the source that are not given here.

Columns and labels:
KOR [1] = target: T1, KOR (Homo sapiens, UniProt P41145); experiment: KOR1 DISCOVERX β-Arrestin […] assay, antagonist mode (KOR DRX); format: cell-based; settings: antagonist; average; read-out: Potency, Target KOR DRX
From the text: (§1) In this campaign, two assay platforms were employed to evaluate KOR activity and selectivity: the KOR1 DISCOVERX β-Arrestin […] assay and an imaging based β-arrestin translocation assay for confirmatory and selectivity assays. The KOR1 DISCOVERX β-Arrestin […] assay is a commercial platform for direct measurement of GPCR (G protein-coupled receptor) activation by detection of β-Arrestin binding to the KOR. […] In cells that stably express these fusion proteins, ligand stimulation results in the recruitment of β-Arrestin by the GPCR. This interaction encourages the complementation of the two β-galactosidase fragments resulting in the formation of a functional enzyme that converts substrate in the assay medium to a detectable signal. The imaging based high-content β-arrestin translocation assay is based upon the redistribution of β-Arrestin linked to green fluorescent protein (GFP) to the cell surface and detection (Barak, et al. (1997) J. Biol. Chem. 272:27497-27500).
(§2) Initially, a portion (approximately 290,000 compounds) of the MLSMR compound collection was tested in the KOR1 DISCOVERX β-arrestin primary kappa opioid (KOP) agonist and antagonist screens (PUBCHEM AID 1777 and 1778, respectively) at a single concentration point (10 μM). […] These compounds were concurrently tested in a β-galactosidase counterscreen assay (PUBCHEM AID 1966) to assess the possibility that these compounds might inhibit the reporting enzyme. […] The KOR:DOR:MOR selectivity of the compounds was determined using the analogous β-arrestin translocation assays for the DOR (PUBCHEM AID 2370 and 2357, for agonists and antagonist, respectively) and the MOR (PUBCHEM AID 2352 and 2420, for agonists and antagonists, respectively).

MOR = MOR (Homo sapiens, UniProt P35372); experiment: High content imaging β-arrestin translocation assay, MOR antagonist (MOR HCS); format: cell-based
From the text: as §1, §2

KOP receptor [2] = target: T2, KOP receptor (Homo sapiens, UniProt P41145); experiment: ERK 1/2 activation, inhibition; format: cell-based
KOP receptor [3] = target: T2, KOP receptor; experiment: 35S-GTPγS coupling, inhibition; format: biochemical
KOR [4] = target: T1, KOR; experiment: High content imaging β-arrestin translocation assay, KOR antagonist (KOR HCS); format: cell-based; settings: antagonist; average; read-out: Potency, Target KOR HCS
From the text: as §1, §2

DOR = DOR (Homo sapiens, UniProt P41143); experiment: High content imaging β-arrestin translocation assay, DOR antagonist (DOR HCS); format: cell-based
From the text: as §1, §2

T2 sequence (P41145 whole entry): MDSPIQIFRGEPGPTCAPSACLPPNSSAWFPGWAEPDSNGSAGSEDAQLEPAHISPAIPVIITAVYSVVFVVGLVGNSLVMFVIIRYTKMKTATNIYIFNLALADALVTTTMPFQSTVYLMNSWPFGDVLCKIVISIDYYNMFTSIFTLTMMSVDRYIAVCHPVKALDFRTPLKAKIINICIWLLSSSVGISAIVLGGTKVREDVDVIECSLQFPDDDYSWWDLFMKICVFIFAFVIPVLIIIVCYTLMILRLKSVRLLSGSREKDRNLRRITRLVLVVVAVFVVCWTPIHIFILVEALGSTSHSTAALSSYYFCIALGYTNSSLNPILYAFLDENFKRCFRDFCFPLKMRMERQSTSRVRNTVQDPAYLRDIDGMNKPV
T1 sequence (P41145 whole entry, the tested form may be a part): as the sequence (P41145 whole entry) above
Sequence of DOR (P41143 whole entry): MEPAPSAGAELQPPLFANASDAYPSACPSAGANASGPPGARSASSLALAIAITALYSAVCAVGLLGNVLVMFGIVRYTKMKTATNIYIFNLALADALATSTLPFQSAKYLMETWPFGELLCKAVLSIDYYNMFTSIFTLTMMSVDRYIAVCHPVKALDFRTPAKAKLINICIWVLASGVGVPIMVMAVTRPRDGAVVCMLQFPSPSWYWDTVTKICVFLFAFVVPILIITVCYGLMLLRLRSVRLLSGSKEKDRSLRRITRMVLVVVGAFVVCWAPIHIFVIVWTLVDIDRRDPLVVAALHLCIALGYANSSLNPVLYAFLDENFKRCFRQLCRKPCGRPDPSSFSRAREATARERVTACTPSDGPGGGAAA
Sequence of MOR (P35372 whole entry): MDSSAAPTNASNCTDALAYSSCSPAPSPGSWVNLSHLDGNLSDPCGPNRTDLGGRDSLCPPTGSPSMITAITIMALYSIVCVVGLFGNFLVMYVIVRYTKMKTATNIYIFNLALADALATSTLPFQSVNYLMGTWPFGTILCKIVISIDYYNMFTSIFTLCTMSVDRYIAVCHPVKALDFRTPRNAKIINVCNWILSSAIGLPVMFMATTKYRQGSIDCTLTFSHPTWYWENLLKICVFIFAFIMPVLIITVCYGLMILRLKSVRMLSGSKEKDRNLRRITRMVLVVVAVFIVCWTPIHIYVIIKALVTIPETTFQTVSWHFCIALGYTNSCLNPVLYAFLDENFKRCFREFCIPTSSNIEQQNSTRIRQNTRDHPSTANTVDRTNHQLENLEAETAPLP

In the case of `COc1ccc(N2CCN(CCCNC(=O)Cn3c(=O)c4cccn4c4ccccc43)CC2)cc1` [Compound 1{1}], the IC50 (KOR [1]) is reported as 1970 nM, the IC50 (MOR) is reported as greater than 32000 nM and the “Imax (% NBNI)” value (KOP receptor [2]) is reported as 101 ± 3^ % NBNI. The IC50 (KOP receptor [2]; n ≧ 3 curves, replicates of 6) was 65 ± 9.2 nM, the “Imax (% NBNI)” value (KOP receptor [3]) was 122 ± 5^a % NBNI and the IC50 (KOP receptor [3]; n ≧ 3 curves in duplicate) was 95.7 ± 48 nM. It also gave an IC50 (KOR [4]) of 1310 nM and an IC50 (DOR) greater than 32000 nM.
